ChEMBL document CHEMBL1667752 (Eur J Med Chem, 2011)

Assays:
[1] = target: Cannabinoid receptor 2 (Homo sapiens, UniProt P34972); experiment: Displacement of [3H]CP 55940 from human CB2 receptor in cell free system; conditions: read-out: Ki
[2] = species on record: Homo sapiens; experiment: Selectivity ratio of Ki for human CB1 to Ki for human CB2
[3] = target: Cannabinoid receptor 1 (Homo sapiens, UniProt P21554); experiment: Displacement of [3H]CP 55940 from human CB1 receptor in cell free system
Sequence of Cannabinoid receptor 1 (P21554 whole entry): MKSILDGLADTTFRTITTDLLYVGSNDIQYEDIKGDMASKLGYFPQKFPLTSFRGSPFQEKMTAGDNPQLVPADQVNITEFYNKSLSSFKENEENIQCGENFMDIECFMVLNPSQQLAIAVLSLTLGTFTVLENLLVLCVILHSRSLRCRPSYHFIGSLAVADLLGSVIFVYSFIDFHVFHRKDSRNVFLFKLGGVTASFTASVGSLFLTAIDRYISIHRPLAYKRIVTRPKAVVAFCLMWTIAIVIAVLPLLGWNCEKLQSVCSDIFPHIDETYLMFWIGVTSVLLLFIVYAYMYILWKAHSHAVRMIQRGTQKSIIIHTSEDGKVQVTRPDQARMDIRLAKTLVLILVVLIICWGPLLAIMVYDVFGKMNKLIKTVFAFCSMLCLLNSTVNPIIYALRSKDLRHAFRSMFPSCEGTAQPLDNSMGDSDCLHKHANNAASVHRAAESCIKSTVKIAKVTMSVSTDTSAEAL

Sequence of Cannabinoid receptor 2 (P34972 whole entry): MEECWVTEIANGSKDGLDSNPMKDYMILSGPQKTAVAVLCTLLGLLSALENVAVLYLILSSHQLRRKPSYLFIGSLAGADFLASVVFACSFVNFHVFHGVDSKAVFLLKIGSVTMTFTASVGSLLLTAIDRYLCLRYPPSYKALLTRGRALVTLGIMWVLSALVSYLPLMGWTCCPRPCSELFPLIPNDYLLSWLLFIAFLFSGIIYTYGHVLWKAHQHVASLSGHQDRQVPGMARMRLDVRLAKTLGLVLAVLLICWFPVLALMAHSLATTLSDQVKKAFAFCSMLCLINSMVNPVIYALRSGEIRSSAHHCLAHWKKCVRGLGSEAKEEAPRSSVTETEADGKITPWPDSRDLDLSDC

Compound | Ki [1] | log(ratioKi) [2] | Ki [3]
CCCCCn1c(C)c(C(=O)c2ccc(CCCC)c3ccc(C)cc23)c2ccccc21 | 6.5 nM | 0.81 | 42 nM
COCCn1c(C)c(C(C)(C)C)s/c1=N\C(=O)c1ccc(C(F)(F)F)cc1 | 10 nM | 2.6 | 4100 nM
CC1(C)C(C(=O)c2cn(CC3CCOCC3)c3cc(O)ccc23)C1(C)C | 8.3 nM | 2.55 | 2950 nM
Cc1nc(C(=O)NC23CC4CC(CC2C4)C3)c(C)n1-c1ccccc1 | 9.7 nM | 2.74 | 5440 nM
CCCCCCn1cc(C(=O)NC2CCCCC2)c(=O)c2ccc(C)nc21 | 8 nM | 1.07 | 95 nM
Cc1ccc(C(=O)NC2C(C)(C)[C@@H]3CC[C@]2(C)C3)cc1S(=O)(=O)N1CCOCC1 (stereo not given in full) | 3.9 nM | 1.5 | 130 nM
CCCCCCC1CCCc2c1cc1c(c2O)[C@@H]2CC(C)=CC[C@H]2C(C)(C)O1 (stereo not given in full) | 5.4 nM | 0.6 | 22.3 nM
Cc1c(C(C)(C)C)s/c(=N\C(=O)c2ccc(OC(F)(F)F)cc2)n1CC1CC1 | 5.7 nM | 2.28 | 1100 nM
CCCCCCC1(c2cc(O)c3c(c2)OC(C)(C)[C@@H]2CC=C(C)C[C@@H]32)CC1(Cl)Cl (stereo not given in full) | 1.3 nM | 0.19 | 1.8 nM
Cc1nc(C(=O)Nc2ccccc2C(F)(F)F)c(C)n1-c1ccccc1 | 3.5 nM | 2.6 | 1420 nM
